Test results: patent publication US10960017B2, “Sorafenib or regorafenib troxacitabine phosphoramidate prodrug combination therapy for liver cancer” (priority 2016, dated 2021)
Where two headings read alike, the source gives them in different places.

Columns and labels:
[1] = system: human hepatocellular carcinoma cell line Hep3B; assay: Combinatorial evaluation in cell culture (Hep3B proliferation, Cell Counting Kit-8, MacSynergy II); type: cell-based; details: combination with sorafenib, Hep3B cells, 6 days incubation; for anti-proliferative interaction with sorafenib (MacSynergy II classification): 95% confidence; for log volume at 95% confidence (synergy volume calculated by MacSynergy II): log volumes >9 indicate strong synergy
Experimental: General Procedure for Combinatorial Evaluation in Cell Culture
For analysis of the human hepatocellular carcinoma cell line Hep3B, from DSMZ (ACC 93), was used. Hep3B cells were cultured as epithelial-like cells in monolayers in 90% MEM (with Earle's salts)+10% h.i. FBS+2 mM L-glutamine+50 u/ml Penicillin/0.05 mg/ml Streptomycin as culture medium. Confluent cultures were split 1:4 to 1:10 every 3-5 days using trypsin/EDTA, and re-seeded at 0.5−1×10^6 cells/80 cm^2.
Cell culture flask is washed 2 times with 5 ml PBS and PBS discarded. Add 1.5 ml of trypsin and put the flask into the incubator for 3-4 minutes. Shake the flask and add 10 ml of DMEM, 10% FCS, 50 μ/ml Penicillin/0.05 mg/ml Streptomycin without phenol red. The cells were counted using the Scepter cell counter, Hep3B cells were diluted to 20×10^3 cells/ml in complete cell medium without phenol red. 100 μl cell suspension/well was seeded in 96-well cell assay plates. Two replicate plates for each combination.
Test compounds were tested at nine concentrations, either 5 μM to 0.00076 μM or 10 μM to 0.0015 μM, in a 1:3 dilution series. Sorafenib was tested at seven concentrations, 20 μM to […], in a 1:2 dilution series. The four dilution plates were prepared with the Echo instrument.
The compound dilutions were 2 times the desired final concentrations. The volume in the dilution plates in each well are 125 μl of medium with compounds.
100 μl from the dilution plate with compounds in the different concentrations were transferred to the corresponding well of the cell assay plate with 100 μl, (200 μl/well in total volume). Incubate the plates for 6 days, at 37° C., 5% CO2.
10 μl of CCK Kit-8 was added to each well using a multi-channel pipette (submerging the tips below the surface in each well). Plates were incubated for 4 hours at 37° C., 5% CO2.
The plate was read in the spectrophotometer at a wavelength of 450 nm, with a reference filter of 650 nm. Average absorbance was >1 to <3 for the vehicle treated cell controls.
Raw data from the two plates of each combination were entered into the Mac Synergy II shareware where the combined effect was calculated and plotted in a 3D dose-response surface graph. Theoretical additive interactions are calculated from the dose response curves for each drug individually. Calculated additive surface is subtracted from experimentally determined dose-response surfaces to reveal regions of non-additive activity. The final results are given as synergy or antagonism volumes (μM^2%) according to guide lines given in the manual for MacSynergy II:
Synergy volumes: • 1. Values of synergy or antagonism under 25 μM^2% (log volumes <2) at 95% confidence should be regarded as insignificant and are probably not important. • 2. Values between 25 μM^2% and 50 μM^2% (log volumes >2 and <5) should be considered a minor but significant amount of synergy. • 3. Values between 50 μM^2% and 100 μM^2% (log volumes >5 and <9) indicate moderate synergy or antagonism. This interaction may be important in vivo. • 4. Values over 100 μM^2% (log volumes >9) indicate strong synergy and are probably important in vivo.

[2] = cited from earlier work

CCC[C@H](C)OC(=O)[C@H](C)NP(=O)(OC[C@H]1OC[C@@H](n2ccc(N)nc2=O)O1)Oc1ccccc1 (single isomer, unassigned) [Example 1]
anti-proliferative interaction with sorafenib (MacSynergy II classification) [1]: strong anti-proliferative synergy
log volume at 95% confidence (synergy volume calculated by MacSynergy II) [1]: 76

CC[C@@H](C)OC(=O)[C@H](C)NP(=O)(OC[C@H]1OC[C@@H](n2cc(F)c(N)nc2=O)O1)Oc1ccccc1 (single isomer, unassigned) [Example 2]
anti-proliferative interaction with sorafenib (MacSynergy II classification) [1]: strong anti-proliferative synergy
log volume at 95% confidence (synergy volume calculated by MacSynergy II) [1]: 11

CCCC(CCC)COC(=O)[C@H](C)NP(=O)(OC[C@H]1OC[C@@H](n2ccc(N)nc2=O)O1)Oc1ccccc1 (single isomer, unassigned) [Example 3]
anti-proliferative interaction with sorafenib (MacSynergy II classification) [1]: strong anti-proliferative synergy
log volume at 95% confidence (synergy volume calculated by MacSynergy II) [1]: 32

CCC[C@H](C)OC(=O)[C@H](C)NP(=O)(OC[C@H]1OC[C@@H](n2ccc(N)nc2=O)O1)Oc1ccc(Br)cc1 (single isomer, unassigned) [Example 4]
anti-proliferative interaction with sorafenib (MacSynergy II classification) [1]: strong anti-proliferative synergy
log volume at 95% confidence (synergy volume calculated by MacSynergy II) [1]: 40

CC[C@@H](C)OC(=O)[C@@H](NP(=O)(OC[C@H]1OC[C@@H](n2ccc(N)nc2=O)O1)Oc1ccccc1)C(C)C (single isomer, unassigned) [Example 5]
anti-proliferative interaction with sorafenib (MacSynergy II classification) [1]: strong anti-proliferative synergy
log volume at 95% confidence (synergy volume calculated by MacSynergy II) [1]: 46

CNC(=O)c1cc(Oc2ccc(NC(=O)Nc3ccc(Cl)c(C(F)(F)F)c3)c(F)c2)ccn1 [Regorafenib monohydrate, 4-[4-({[4-chloro-3-(trifluoromethyl)phenyl]carbamoyl}amino)-3-fluorophenoxy]-N-methylpyridine-2-carboxamide monohydrate]
solubility ([2]; acetone): sparingly soluble
solubility ([2]; acetonitrile): slightly soluble
solubility ([2]; aqueous media): practically insoluble
solubility ([2]; ethanol): slightly soluble
solubility ([2]; ethyl acetate): slightly soluble
solubility ([2]; methanol): slightly soluble

CNC(=O)c1cc(Oc2ccc(NC(=O)Nc3ccc(Cl)c(C(F)(F)F)c3)cc2)ccn1.Cc1ccc(S(=O)(=O)O)cc1 [Sorafenib tosylate, 4-(4-{3-[4-Chloro-3(trifluoromethyl)phenyl]ureido}phenoxy) N-methylpyridine-2-carboxamide 4-methylbenzenesulfonate]
solubility ([2]; PEG 400): soluble
solubility ([2]; aqueous media): practically insoluble
solubility ([2]; ethanol): slightly soluble
